In US20240301319A1, “PERFUMING COMPOSITIONS” (FIRMNICH SA, priority 2017, published 2024):

What was measured:
[1] = Volatility of perfuming compounds (Tables 4 to 10), with top/middle/bottom note type; format: physicochemical
In short: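 Note type follows from air volatility (μg/l): bottom 49–0.1, middle 99–50, top 70,000–100. Compounds are listed within watery, green, fruity, citrus, sweet, gourmand and woody families.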

[2] = Odor threshold and odor value of perfuming compounds (Tables 4 to 10)
[3] = Table 6, perfuming compounds having a fruity note
[4] = Table 6, perfuming compounds having a fruity note, note type by volatility
[5] = Table 8, perfuming compounds having a sweet note
[6] = Table 8, perfuming compounds having a sweet note, note type by volatility
[7] = Table 9, perfuming compounds having a gourmand note, note type by volatility
[8] = Table 7, citrus note, top, middle or bottom note
[9] = Table 7, citrus note, equals volatility divided by odor threshold
[10] = note type (Top/Middle/Bottom) by volatility, perfuming compounds having a green note
[11] = perfuming compounds having a green note
[12] = Table 10, perfuming compounds having a woody note, note type by volatility
[13] = Table 4, watery note, top, middle or bottom note
[14] = Table 4, watery note, equals volatility divided by odor threshold

CC(C)CCOCCc1ccccc1 [3-METHYLBUTYL 2-PHENYLETHYL ETHER]
Volatility [1, 3]: 110.11 μg/l air | Type [1, 4]: TOP (perfuming compounds having a volatility ranging from 70,000 to 100 μg/l in air are referred to as “top notes”) | Volatility [1, 5]: 110.11 μg/l air | Type [1, 6]: Top | Volatility ([1]; Table 9, gourmand note): 110.11 μg/l air | Type [1, 7]: Top | Odor Threshold [2, 3]: 1.38E−02 μg/l air | Odor Value [2, 3]: 7.96E+03 | Odor Threshold [2, 5]: 1.38E−02 μg/l air | Odor Value [2, 5]: 7.96E+03 | Odor Threshold ([2]; Table 9, gourmand note): 1.38E−02 μg/l air

CC(C)=CCCC(C)CCOCC=O (racemic)
Volatility (μg/l air) ([1]; Table 7, citrus note): 4.70 μg/l air | Type [1, 8]: Bottom | Odor Threshold (μg/l air) ([2]; Table 7, citrus note): 8.95E−04 μg/l air | Odor Value [2, 9]: 5.26E+03

CCCCCCOC(C)=O [HEXYL ACETATE]
Volatility [1, 3]: 2316.04 μg/l air | Type [1, 4]: TOP (perfuming compounds having a volatility ranging from 70,000 to 100 μg/l in air are referred to as “top notes”) | Type [1, 10]: Top | Volatility (μg/l air) [1, 11]: 2316.04 μg/l air | Odor Threshold (μg/l air) [2, 11]: 1.32E−01 μg/l air

CC1CC[C@@]2(O1)C(C)(C)CCC[C@@]2(C)O (mixture of isomers)
Type [1, 12]: Middle | Volatility ([1]; Table 10, woody note): 84.04 μg/l air | Odor Threshold ([2]; Table 10, woody note): 5.15E−04 μg/l air

CCCCCCOC(=O)c1ccccc1O [HEXYL 2-HYDROXYBENZOATE]
Volatility [1, 3]: 3.82 μg/l air | Type [1, 4]: Bottom | Volatility (μg/l air) ([1]; Table 7, citrus note): 3.82 μg/l air | Type [1, 8]: Bottom | Type [1, 10]: Bottom | Volatility (μg/l air) [1, 11]: 3.82 μg/l air | Odor Threshold [2, 3]: 5.50E−03 μg/l air | Odor Value [2, 3]: 6.95E+02 | Odor Threshold (μg/l air) ([2]; Table 7, citrus note): 5.50E−03 μg/l air | Odor Value [2, 9]: 6.95E+02 | Odor Threshold (μg/l air) [2, 11]: 5.50E−03 μg/l air

CC(C)CC1CC(C)(O)CCO1 (racemic) [(+−)-TETRAHYDRO-2-ISOBUTYL-4-METHYL-4(2H)-PYRANOL]
Volatility (μg/l air) ([1]; Table 4, watery note): 79.79 μg/l air | Type [1, 13]: middle (perfuming compounds having a volatility ranging from 99 to 50 μg/l in air are referred to as “middle notes”) | Odor Threshold (μg/l air) ([2]; Table 4, watery note): 1.35E−02 μg/l air | Odor Value [2, 14]: 5.91E+03

CC1CC(C)(C)OC(Cc2ccccc2)O1 (centres unmarked)
Type [1, 10]: Bottom | Volatility (μg/l air) [1, 11]: 29.99 μg/l air | Odor Threshold (μg/l air) [2, 11]: 5.26E−02 μg/l air

CCOc1ccc2ccccc2c1 [2-ETHOXYNAPHTHALENE]
Volatility (μg/l air) ([1]; Table 7, citrus note): 22.67 μg/l air | Type [1, 8]: Bottom | Odor Threshold (μg/l air) ([2]; Table 7, citrus note): 3.57E−03 μg/l air | Odor Value [2, 9]: 6.35E+03

CC1=C(O)C(=O)CC1 [2-HYDROXY-3-METHYL-2-CYCLOPENTEN-1-ONE]
Volatility [1, 5]: 396.50 μg/l air | Type [1, 6]: Top | Odor Threshold [2, 5]: 3.82E−04 μg/l air | Odor Value [2, 5]: 1.04E+06

COc1nccnc1CC(C)C [PYRAZOBUTYLE]
Type [1, 10]: Top | Volatility (μg/l air) [1, 11]: 1617.21 μg/l air | Odor Threshold (μg/l air) [2, 11]: 7.20E−07 μg/l air

CC(=O)O[C@@H]1C(C)(C)CCC[C@]12CC=C(C)C[C@H]2C (racemic)
Type [1, 12]: Bottom | Volatility ([1]; Table 10, woody note): 8.25 μg/l air | Odor Threshold ([2]; Table 10, woody note): 3.79E−03 μg/l air

Cc1ccc2c(c1)CC(C)(CO)C2 (racemic)
Volatility (μg/l air) ([1]; Table 4, watery note): 4.86 μg/l air | Type [1, 13]: bottom (perfuming compounds having a volatility ranging from 49 to 0.1 μg/l in air are referred to as “bottom notes”) | Odor Threshold (μg/l air) ([2]; Table 4, watery note): 1.28E−04 μg/l air | Odor Value [2, 14]: 3.79E+04

C=CCCC(=O)C1=CCCC(C)(C)C1 [1-(5,5-dimethyl-1-cyclohexen-1-yl)-4-penten-1-one]
Volatility [1, 3]: 38.43 μg/l air | Type [1, 4]: Bottom | Type [1, 10]: Bottom | Volatility (μg/l air) [1, 11]: 38.43 μg/l air | Odor Threshold [2, 3]: 1.64E−06 μg/l air | Odor Value [2, 3]: 2.34E+07 | Odor Threshold (μg/l air) [2, 11]: 1.64E−06 μg/l air

CCCCCCCCCCC=O [undecanal]
Volatility (μg/l air) ([1]; Table 4, watery note): 178.29 μg/l air | Type [1, 13]: TOP (perfuming compounds having a volatility ranging from 70,000 to 100 μg/l in air are referred to as “top notes”) | Odor Threshold (μg/l air) ([2]; Table 4, watery note): 1.65E−03 μg/l air | Odor Value [2, 14]: 1.08E+05

O=C1CCCCCCC/C=C/CCCCCCO1 [(10E)-oxacycloheptadec-10-en-2-one]
Volatility [1, 3]: 0.74 μg/l air | Type [1, 4]: Bottom | Volatility (μg/l air) ([1]; Table 7, citrus note): 0.74 μg/l air | Type [1, 8]: Bottom | Odor Threshold [2, 3]: 4.77E−04 μg/l air | Odor Value [2, 3]: 1.55E+03 | Odor Threshold (μg/l air) ([2]; Table 7, citrus note): 4.77E−04 μg/l air | Odor Value [2, 9]: 1.55E+03

CC(=O)OCCc1ccccc1 [2-PHENYLETHYL ACETATE]
Volatility [1, 3]: 201.26 μg/l air | Type [1, 4]: TOP (perfuming compounds having a volatility ranging from 70,000 to 100 μg/l in air are referred to as “top notes”) | Volatility [1, 5]: 201.26 μg/l air | Type [1, 6]: Top | Volatility ([1]; Table 9, gourmand note): 201.26 μg/l air | Type [1, 7]: Top | Odor Threshold [2, 5]: 2.14E−03 μg/l air | Odor Value [2, 5]: 9.38E+04 | Odor Threshold ([2]; Table 9, gourmand note): 2.14E−03 μg/l air

C[C@H]1[C@@H]2C[C@H](C[C@@]13C=CC(=O)CC3)C2(C)C
Volatility [1, 3]: 4.14 μg/l air | Type [1, 4]: Bottom | Type [1, 12]: Bottom | Volatility ([1]; Table 10, woody note): 4.14 μg/l air | Odor Threshold [2, 3]: 6.32E−04 μg/l air | Odor Value [2, 3]: 6.54E+03 | Odor Threshold ([2]; Table 10, woody note): 6.32E−04 μg/l air

CC/C=C\CCOC(=O)c1ccccc1O [(3Z)-3-hexen-1-yl salicylate]
Type [1, 10]: Bottom | Volatility (μg/l air) [1, 11]: 4.34 μg/l air | Odor Threshold (μg/l air) [2, 11]: 3.23E−04 μg/l air

COC(=O)/C=C/c1ccccc1 [METHYL (E)-3-PHENYL-2-PROPENOATE]
Volatility [1, 3]: 61.65 μg/l air | Type [1, 4]: Middle | Odor Threshold [2, 3]: 3.13E−03 μg/l air | Odor Value [2, 3]: 1.97E+04

CC(C=O)Cc1ccc(C(C)C)cc1 (racemic) [(+−)-3-(4-isopropylphenyl)-2-methylpropanal]
Volatility (μg/l air) ([1]; Table 4, watery note): 24.85 μg/l air | Type [1, 13]: bottom (perfuming compounds having a volatility ranging from 49 to 0.1 μg/l in air are referred to as “bottom notes”) | Odor Threshold (μg/l air) ([2]; Table 4, watery note): 3.00E−03 μg/l air | Odor Value [2, 14]: 8.28E+03

COc1cccc(OC)c1O [2,6-DIMETHOXYPHENOL]
Volatility [1, 5]: 19.23 μg/l air | Type [1, 6]: Bottom | Volatility ([1]; Table 9, gourmand note): 19.23 μg/l air | Type [1, 7]: Bottom | Odor Threshold [2, 5]: 8.01E−06 μg/l air | Odor Value [2, 5]: 2.40E+06 | Odor Threshold ([2]; Table 9, gourmand note): 8.01E−06 μg/l air

C=CC(C)=CCC=C(C)C
Volatility [1, 3]: 3480.57 μg/l air | Type [1, 4]: TOP (perfuming compounds having a volatility ranging from 70,000 to 100 μg/l in air are referred to as “top notes”) | Type [1, 10]: Top | Volatility (μg/l air) [1, 11]: 3480.57 μg/l air | Odor Threshold (μg/l air) [2, 11]: 2.57E−02 μg/l air

(2R)-2-methyl-4-[(1R)-2,2,3-trimethyl-3-cyclopenten-1-yl]-4-pentenal (A) + (2S)-2-methyl-4-[(1R)-2,2,3-trimethyl-3-cyclopenten-1-yl]-4-pentenal (B)
Volatility (μg/l air) ([1]; Table 4, watery note): 63.49 μg/l air | Type [1, 13]: middle (perfuming compounds having a volatility ranging from 99 to 50 μg/l in air are referred to as “middle notes”) | Odor Threshold (μg/l air) ([2]; Table 4, watery note): 2.22E−03 μg/l air | Odor Value [2, 14]: 2.86E+04

COC(OC)C(C)(C)CC=C(C)C
Type [1, 12]: Top | Volatility ([1]; Table 10, woody note): 1311.32 μg/l air | Odor Threshold ([2]; Table 10, woody note): 1.26E−02 μg/l air

CC1=CCC2C(C1)C1CC2C2(C1)OC2C (racemic)
Volatility [1, 3]: 36.76 μg/l air | Type [1, 4]: Bottom | Type [1, 10]: Bottom | Volatility (μg/l air) [1, 11]: 36.76 μg/l air | Odor Threshold [2, 3]: 9.93E−04 μg/l air | Odor Value [2, 3]: 3.70E+04 | Odor Threshold (μg/l air) [2, 11]: 9.93E−04 μg/l air
